{
  "source": "patent US20080085264A1",
  "about": "“METHODS FOR ENHANCING STEM CELL ENGRAFTMENT DURING TRANSPLANTATION” (priority 2003, published 2008)",
  "key": {"[1]": {"test_system": "BoyJ recipient mice", "test": "Non-competitive long-term engraftment", "assay_type": "in vivo, mouse", "conditions": "six months post transplant, P<0.05, n=5", "experimental": "Control C57BL/6 (CD45.2^+) or CD26 inhibitor treated C57BL/6 (CD45.2^+) LD donor BM cells were transplanted by tail-vein injection into lethally irradiated (1100 cGy split dose) congenic BoyJ (CD45.1^+) female recipient mice (Haneline L S, et al. Blood. 1999; 94:1-8). Contribution of donor cells was obtained by measuring the number of donor and residual recipient lymphocytes in the peripheral blood. The % donor contribution was calculated by flow cytometric analysis of peripheral blood lymphocytes found in the recipient mouse peripheral blood by measuring CD45.1^+ and CD45.2^+ on cells isolated from the recipient mice 1-6 months post transplant. No less than five mice from each recipient group were analyzed, each one having received a transplant of 5×10^5 pooled LD donor BM cells. Comparisons between treatment groups were made using a two-tailed Student's t-test and data was plotted as mean (M)±standard error of the mean (SEM)."}, "[2]": {"test_system": "DBA/2 mice", "test": "G-CSF induced mobilization of HSC/HPC in DBA/2 mice (progenitor cell assays of peripheral blood)", "assay_type": "in vivo, mouse", "conditions": "inhibitor treatment during G-CSF mobilization", "experimental": "Mobilization was achieved by treating mice with 2.5 μg (micrograms) G-CSF/mouse 2×/day s.c. for 2 days (Broxmeyer H E, et al. J Exp Med. 1999; 189:1987-1992). Mice simultaneously treated with a specific CD26 inhibitor also underwent treatment with either 5 μmol Diprotin A/mouse 2×/day s.c. for 2 days or 5 μmol Val-Pyr/mouse 2×/day s.c. for 2 days. Diprotin A was obtained commercially (Peptides International, Louisville, Ky.) and Val-Pyr was obtained as a gift from Nicolai Wagtmann (Novo Nordisk, Denmark). After either G-CSF or G-CSF plus CD26 inhibitor treatment peripheral blood cells were collected and total cellular nuclearity was measured and progenitor cell assays were performed using total peripheral blood cells.\nOne-hundred thousand mouse G-CSF mobilized peripheral blood cells were plated in triplicate for colony formation by CFU-GM, BFU-E, and CFU-GEMM and scored at 7 days incubation as previously described (Cooper S, Broxmeyer H E. Measurement of interleukin-3 and other hematopoietic growth factors, such as GM-CSF, G-CSF, M-CSF, erkythropoietin and the potent co-stimulating cytokines steel factor and FLt-3 ligand. In: Coligan J E K A, Margulies D H, Shevach E M, Strober E, Coico R, ed. Current protocols in immunology. New York: John Wiley & Sons; 1996:6.4.1-6.4.12). Cells were plated for colony formation in 1% methylcellulose culture medium containing 30% FBS, 1 U/ml recombinant(r) human Epo, 0.1 mM Hemin, 5% Pokeweed Mitogen Spleen Conditioned Media (PWMSCM), and 50 ng/ml rmouse Steel Factor (=Stem Cell Factor, SCF)."}, "[3]": {"test_system": "DBA/2 mice", "test": "G-CSF induced mobilization of HSC/HPC in DBA/2 mice (progenitor cell assays of peripheral blood)", "assay_type": "in vivo, mouse", "conditions": "without G-CSF"}, "[4]": {"target": "T1, CD26/DPPIV (Mus musculus, UniProt P28843)", "T1 construct": "endogenous in cells; host or cells: sorted mouse (C57BL/6) bone marrow cells", "T1 sequence (P28843 whole entry)": "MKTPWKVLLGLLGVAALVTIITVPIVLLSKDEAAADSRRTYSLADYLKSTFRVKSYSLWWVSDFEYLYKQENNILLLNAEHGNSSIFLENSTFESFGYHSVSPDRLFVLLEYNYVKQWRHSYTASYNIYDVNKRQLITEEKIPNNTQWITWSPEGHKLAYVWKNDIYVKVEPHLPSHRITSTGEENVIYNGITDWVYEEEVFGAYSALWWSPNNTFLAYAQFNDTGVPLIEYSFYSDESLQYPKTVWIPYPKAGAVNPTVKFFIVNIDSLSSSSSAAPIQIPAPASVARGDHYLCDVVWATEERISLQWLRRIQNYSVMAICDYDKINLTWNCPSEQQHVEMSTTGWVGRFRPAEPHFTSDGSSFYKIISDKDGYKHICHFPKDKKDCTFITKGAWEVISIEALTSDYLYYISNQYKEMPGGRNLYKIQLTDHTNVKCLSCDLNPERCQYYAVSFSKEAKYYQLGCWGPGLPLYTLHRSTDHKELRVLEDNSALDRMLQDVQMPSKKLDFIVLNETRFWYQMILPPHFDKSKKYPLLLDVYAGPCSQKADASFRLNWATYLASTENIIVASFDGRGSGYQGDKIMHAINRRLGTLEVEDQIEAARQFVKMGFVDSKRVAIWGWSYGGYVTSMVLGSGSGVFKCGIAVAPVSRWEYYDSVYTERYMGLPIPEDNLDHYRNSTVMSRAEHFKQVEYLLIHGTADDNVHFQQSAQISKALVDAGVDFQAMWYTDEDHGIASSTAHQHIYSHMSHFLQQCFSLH", "test": "CD26/DPPIV peptidase activity of C57BL/6 BM cells (Gly-Pro-pNA)", "assay_type": "cell-based", "experimental": "Proteolytic activity was determined by measurement of the amount of p-nitroanilide (pNA) formed in the supernatant at 405 nm. One thousand cells per well in the 96-well flat-bottomed plate were incubated at 37° C. with 4 mM Gly-Pro-pNA in 100 μL PBS buffer (pH 7.4) containing 10 mg/ml BSA. Absorbance was measured at 405 nm on a microplate spectrofluorometer (SpectraMax 190, Molecular Devices, Sunnyvale, Calif.) every two minutes and pmoles of pNA formed were calculated by comparison to a pNA standard curve. The results were plotted as pmoles pNA versus minutes and the slope was calculated at the linear portion of the curve giving a measure of DPPIV activity expressed as pmoles/min (U) per 1000 cells. Tests were run using three separate samples (n=3 for each sample); cell-free blanks, substrate-free blanks were run in parallel."}, "[5]": {"test_system": "Sca-1+c-kit+lin- mBM cells", "test": "Chemotaxis assay, CXCL12 induced migration of sorted Sca-1+c-kit+lin- mBM cells", "assay_type": "cell-based, mouse", "conditions": "5 mM Diprotin A", "experimental": "Chemotaxis assays were performed using 96-well chemotaxis chambers (NeuroProbe, Gaithersburg, Md.) in accordance with manufacturer's instructions as described previously with minor variations (Christopherson K W, 2nd, et al. J Immunol. 2002; 169:7000-7008; Christopherson K W, 2nd, et al. Blood. 2001; 98:3562-3568; Christopherson K, 2nd, et al. Immunol Lett. 1999; 69:269-273). Briefly 300 μl of RPMI supplemented with 10% FBS and either 0, 100, 200, and 400 ng/ml of mouse CXCL12 chemokine was added to the lower chamber. Ten-thousand sorted cells in 50 μL of media were added to the upper side of the membrane (5.7 mm diameter, 5 μm pore size, polycarbonate membrane.)\nTotal cell number in the lower well was obtained by counting using hemocytometer after 4 hours of incubation at 37° C., 5% CO2. Percent migration was calculated by dividing the number of the cells in the lower well by the total cell input multiplied by 100 and subtracting random migration (always less than 5%) to the lower chamber without chemokine presence. Three samples were analyzed separately in triplicate, and then the data averaged for statistical analysis.\nThe N-terminal truncated mouse CXCL12 (CXCL12 (amino acids 3-68)) was produced by treatment of mouse CXCL12 with DPPIV (Enzyme Systems Products, Livermore, Calif.) for 18 hrs at 37° C. in PBS pH 7.4. […]"}},
  "data": [
    {"substance": "Ile-Pro-Ile [Diprotin A]", "values": [
      {"measurement": "donor cell contribution to the formation of peripheral blood leukocytes", "setting": "[1]", "result": "Increased donor cell contribution"},
      {"measurement": "reduction in BFU-E compared to G-CSF alone", "setting": "[2]", "result": 56, "unit": "%"},
      {"measurement": "reduction in CFU-GEMM compared to G-CSF alone", "setting": "[2]", "result": 71, "unit": "%"},
      {"measurement": "reduction in CFU-GM compared to G-CSF alone", "setting": "[2]", "result": 62, "unit": "%"},
      {"measurement": "effect on the mobilization of progenitors, inhibitor alone", "setting": "[3]", "result": "little or no effect"},
      {"measurement": "CD26 peptidase activity with inhibitor treatment", "setting": "[4]; C57BL/6 BM cells, P<0.01", "result": "rapidly lost"},
      {"measurement": "recovery of CD26 activity begins, time post treatment", "setting": "[4]; cells washed 15 minutes post inhibitor treatment", "result": "within four hours"},
      {"measurement": "enhancement in migration", "setting": "[5]; 100 ng/ml CXCL12", "result": "two-fold"},
      {"measurement": "increase in total cell migration", "setting": "[5]; 200 and 400 ng/ml CXCL12", "result": 1.7, "unit": "fold"}
    ]}
  ]
}
